Values belong to the molecule of their own block, whether it stands above or below them. Where no end group is shown, it is not given here. FAM = 5(6)-carboxyfluorescein
Columns and labels:
[1] = Fragment solubility assay (quantitative 1H NMR); assay type: physicochemical; settings: Supplementary Table 1
Method: Aqueous solubility test samples were prepared by adding 3.6 µL compound (50 mM stock in 100% DMSO-d6) to 176.4 µL NMR buffer in a microcentrifuge tube. The samples were incubated overnight and transferred to a 3-mm NMR tube (Bruker, Part No. Z112272). ^1H NMR spectra were recorded, with the DMSO and water signals dampened. 1 mM caffeine (Sigma, C1778 in PBS (pH 7.4) with 1% DMSO-d6) was used as a standard to quantify the ligand signals and determine the concentration of samples.
NMR data were collected on a Bruker Avance Neo 600-MHz spectrometer equipped with a 5 mm TCI-CryoProbe. The ^1H spectrum was referenced to the internal deuterated solvent. The operating frequency for ^1H was 600 MHz. All NMR data were acquired at the temperature of 298 K. All data were acquired and processed using Bruker Topspin 4.0. The quantitative ^1H-NMR spectrum was acquired using a Bruker standard 1D lc1pngppsf2 pulse sequence with 32 scans. The sweep width was 6.2 ppm with O1P set to 8.8 ppm, and the FID contained 16k time-domain data points. Relaxation delay was set to 20 s. Water signal was suppressed.

TRF1TRFH [2] = target: T1, TRF1TRFH (Homo sapiens, UniProt P54274); assay: LO-NMR CPMG assay (relaxation-edited), singletons; assay type: binding; settings: single experiment; for CPMG reduction: average peak intensity reduction on addition of TRF1TRFH, 250 µM ligand, 20 µM protein; for CPMG recovery: net recovery of peak intensity on addition of TIN2TBM peptide (40 µM) to compound plus protein
T1 construct: encoding residues 47–268, UniProt identifier P54274-1; His6-MBP (TEV-cleavable) (N, cleaved yes); made in house; host or cells: E. coli BL21-CodonPlus(DE3)-RIL
T1 sequence (P54274 47-268): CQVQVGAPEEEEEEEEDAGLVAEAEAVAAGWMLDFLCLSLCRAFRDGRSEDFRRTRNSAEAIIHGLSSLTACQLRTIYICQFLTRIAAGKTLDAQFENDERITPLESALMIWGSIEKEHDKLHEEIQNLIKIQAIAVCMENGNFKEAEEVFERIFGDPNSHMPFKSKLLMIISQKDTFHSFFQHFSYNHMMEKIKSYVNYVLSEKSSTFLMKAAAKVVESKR
Method: We next used a LO-NMR CPMG assay to orthogonally validate XChem hits in solution, aiming to eliminate false positives and rank hit matter for follow-up studies. Compounds were tested as singletons and prepared in two samples containing either compound alone (sample 1) or compound + TRF1TRFH (sample 2).
The fragment screen by LO-NMR was carried out using conditions described previously, with some modifications. Fragments were dispensed in triplicate into a 384-well plate using an Echo 550 liquid handler to give a final ligand concentration of 250 µM (total sample volume of 40 µL). 40 µL of TRF1TRFH protein (in NMR buffer; 20 µM final protein concentration in the assay) were added to the ‘protein’ samples; 40 µL of TRF1TRFH protein and TIN2TBM peptide (21-mer, Ac-[…]-CONH2; 40 µM final concentration in the assay) were both added to the ‘competitor’ samples; 40 µL NMR buffer were added to the ‘compound-only’ samples. Solutions were transferred to 1.7-mm NMR tubes using a Bruker SamplePro Tube robotics system. ^1H NMR spectra were recorded on a Bruker AVIII 500 MHz spectrometer at 298 K, equipped with a 1.7-mm TXI probe, with samples in 1.7-mm SampleJET NMR tubes (Bruker). DMSO and water signals were dampened. A relaxation spin filter was applied at 400 ms. Data were processed using Bruker Topspin 4.0. Lines were broadened with LB = 3.0, and the baseline was corrected between 6.0 and 10.0 ppm.
The data were then analysed using the MNova Screen software. Only peaks between 5.5 and 9.5 ppm were considered. Peaks with a height of < 5% maximum peak height within the region of interest were considered noise, and the minimum matched peak level was set at > 51%. The relative peak intensity change (I) was calculated for all peaks in the 5.5–9.5 ppm region, for each compound, as described previously. The average integral for all peaks between 6.0 and 10.0 ppm was calculated, and the differences between compound-only, compound-plus-protein, and compound-plus-protein-plus-competitor samples were compared. The net recovery was calculated by subtracting the reduction in peak integral of the compound-plus-protein samples from the compound-plus-protein-plus-competitor samples.
For hit validation, relaxation-edited LO-NMR experiments were repeated as described above on single compounds instead of fragment cocktails.

TRF1TRFH [3] = target: T1, TRF1TRFH; assay: Crystal soaking of TRF1TRFH crystals; settings: soaking into TRF1TRFH crystals; Supplementary Table 1
Text: Attempts to soak TRF1TRFH crystals with the commercially available analogues of the XChem hit 5 were also unsuccessful. Only one slightly smaller analogue (22) could be soaked into TRF1TRFH crystals, albeit with an ambiguous binding mode. […] In the case of compound 5, we observed a hydrogen bond between the amino group of the fragment and a backbone carbonyl in the neighbouring protein chain (Fig. 2i). […] Additionally, the pocket normally occupied by the conserved phenylalanine residue of the TIN2 F-X-L-X-P motif was fully obstructed by a crystal contact with a TRF1TRFH copy in an adjacent asymmetric unit, further limiting the possibility of obtaining XChem hits outside of the leucine pocket.
TRF1TRFH crystals in the P3_121 space group were grown by sitting drop vapour diffusion in SWISSCI 3-drop plates using similar crystallisation conditions to those described previously. The total drop volume was 300 nL, consisting of 150 nL of TRF1TRFH (31.2 mg/mL) and 150 nL of reservoir solution (1% PEG8000, 100 mM MES pH 6.0, 1–12 mM Mg(OAc)2, 10–15% glycerol), whilst the reservoir volume was 35 µL. Crystallisation plates were set up using an SPT Labtech mosquito Xtal2 liquid handler. Cuboid-shaped crystals grew to their maximum size (300 μm across) within 24 h. Crystals were cryoprotected through the addition of 180 nL of 40% glycerol to the crystal drop prior to harvesting, giving a final glycerol concentration of […] (accounting for the glycerol already in the crystallisation conditions). The crystals were then flash-frozen in liquid nitrogen, and data were collected at the Diamond Light Source beamlines I04 and I04-1 and processed automatically using the Xia2 Dials pipeline[53],[54]. The TRF1TRFH structure was solved by molecular replacement in Phaser MR[55] within CCP4[56] using the previously published TRF1TRFH structure as a search model (PDB: 1H6O)[31], after having first stripped the search model of solvent molecules and ligands. Structure refinement was done using Refmac[57] and Buster[36], and model correction and building was done using Coot 0.9.6[35].
The DSi-Poised library (768 fragment, Enamine)[32], the EUbOPEN DSiP extension library (108 fragments) and the FragLite library (31 fragments)[33] were screened against TRF1TRFH crystals. Compounds at 500 mM in DMSO stocks were dispensed into selected crystal drops as singletons using an Echo 550 liquid handler to give a final concentration of 50 mM (10% DMSO final concentration). After incubation for 1 h at 20 °C, 180 nL of glycerol (40% stock, final drop concentration 28.8–32.5%) were added to each drop immediately prior to crystal harvesting and flash-freezing in liquid nitrogen.
Data were collected on the I04-1 beamline at Diamond Light Source. […]

TIN2 TBM (Homo sapiens) = TIN2 TBM (Homo sapiens) (UniProt Q9BSI4); settings: cited from earlier work
[4] = target: T2, TRFH domain of TRF1 (TRF1_(TRFH)), residues 47–268 (human, UniProt P54274-1 47-268); assay: ligand-observed NMR (CPMG / R2 relaxation) competition; fragment 250 µM with 20 µM TRF1_(TRFH), with or without 40 µM TIN2TBM peptide as competitor; NMR buffer; 298 K; settings: both partners purified
T2 construct: cDNA codon-optimised for E. coli; also called TRF homology (TRFH) domain; source: E. coli BL21-CodonPlus(DE3)-RIL, purified (HisTrap, TEV cleavage, second HisTrap, Superdex 200 SEC); not shown: His6, N-terminal, cleaved; MBP, N-terminal, cleaved
T2 sequence (looked up): T1 sequence (P54274 47-268)

[5] = target: T2, TRFH domain of TRF1 (TRF1_(TRFH)), …; assay: fluorescence polarisation; direct titration: TRF1_(TRFH) 20 to 0.02 µM (11 points) against 25 nM TIN2-FAM; 25 mM HEPES-NaOH pH 7.5, 100 mM NaCl, 1 mM TCEP, 0.05% w/v CHAPS; 1 h at room temperature; settings: both partners purified
[6] = target: T3, (StrepII)2-TEV-tagged TIN2, subunit of recombinant shelterin (UniProt Q9BSI4-1 1-451); assay: mass photometry; SEC-purified shelterin without compound; complex of around 700 kDa; 50 mM HEPES-NaOH pH 8.0, 300 mM NaCl; settings: both partners purified
T3 construct: TIN2, gene NM_001099274.1, codon-optimised; a TEV site lies between tag and protein; The separately made control protein is called TIN2L; The discussion says that the complex carries a short peptidic tag on TIN2; source: Sf9, co-expressed with the other shelterin subunits (MultiBac baculovirus), purified (StrepTrap, serial SEC)
T3 sequence (looked up): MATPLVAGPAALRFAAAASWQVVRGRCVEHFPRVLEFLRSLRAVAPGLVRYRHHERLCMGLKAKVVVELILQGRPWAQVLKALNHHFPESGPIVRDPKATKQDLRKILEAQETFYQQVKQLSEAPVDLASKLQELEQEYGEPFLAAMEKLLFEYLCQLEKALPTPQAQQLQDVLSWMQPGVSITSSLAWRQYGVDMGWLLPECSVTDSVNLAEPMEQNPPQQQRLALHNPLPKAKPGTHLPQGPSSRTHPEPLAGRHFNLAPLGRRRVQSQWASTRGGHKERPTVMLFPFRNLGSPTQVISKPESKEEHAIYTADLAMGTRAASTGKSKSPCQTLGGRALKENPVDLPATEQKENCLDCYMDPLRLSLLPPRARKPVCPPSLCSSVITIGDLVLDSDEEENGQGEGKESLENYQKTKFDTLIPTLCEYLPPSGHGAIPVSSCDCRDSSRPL

[7] = target: T4, TRF1 (telomeric repeat-binding factor 1), full length, subunit of recombinant shelterin (human), P54274; assay: mass photometry; SEC-purified shelterin 1.25 µM incubated 1 h at room temperature with 100-300 µM compound 40, cross-linked with 0.1% glutaraldehyde, diluted to 50 nM; settings: remark: other sources report otherwise
T4 chain: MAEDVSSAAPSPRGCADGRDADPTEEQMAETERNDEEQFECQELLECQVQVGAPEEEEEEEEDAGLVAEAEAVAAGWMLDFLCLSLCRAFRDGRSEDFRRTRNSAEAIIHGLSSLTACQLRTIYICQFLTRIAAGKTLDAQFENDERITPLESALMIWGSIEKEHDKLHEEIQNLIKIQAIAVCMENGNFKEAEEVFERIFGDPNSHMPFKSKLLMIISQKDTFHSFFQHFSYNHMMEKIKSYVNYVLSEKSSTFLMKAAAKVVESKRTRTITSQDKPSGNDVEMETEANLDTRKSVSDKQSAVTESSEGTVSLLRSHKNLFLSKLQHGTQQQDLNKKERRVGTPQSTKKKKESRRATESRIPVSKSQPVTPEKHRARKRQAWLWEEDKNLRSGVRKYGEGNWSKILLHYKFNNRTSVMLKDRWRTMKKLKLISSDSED

Molecule: COc1ccc2sc(N)nc2c1 [Compound 20]
Aq. Sol. [1]: 580 µM
CPMG reduction (TRF1TRFH [2]): 25%
CPMG recovery (TRF1TRFH [2]): 0%
Crystal structure (TRF1TRFH [3]): Yes

Molecule: COc1cc2nc(N)sc2cc1OC [Compound 21]
Aq. Sol. [1]: 190 µM
CPMG reduction (TRF1TRFH [2]): 14%
CPMG recovery (TRF1TRFH [2]): 12%
Crystal structure (TRF1TRFH [3]): No

Molecule: TRF1 TRFH (from UniProt P54274)
Kd (TIN2 TBM (Homo sapiens)): 300 nM

More lines, now with the values ahead:

Aq. Sol. [1]: 790 µM
CPMG reduction (TRF1TRFH [2]): 18%
CPMG recovery (TRF1TRFH [2]): 9%
Crystal structure (TRF1TRFH [3]): Yes
Molecule: COc1ccc2sc(C)nc2c1 [Compound 22]

Aq. Sol. [1]: 400 µM
CPMG reduction (TRF1TRFH [2]): 28%
CPMG recovery (TRF1TRFH [2]): 11%
Crystal structure (TRF1TRFH [3]): No
Molecule: Nc1nc2cc3c(cc2s1)OCO3 [Compound 24]

binding result [4]: binds
B1: TIN2TBM peptide (21-mer, Ac-RHFNLAPLGRRRVQSQWASTR-CONH2) (peptide)
peptide: Ac-RHFNLAPLGRRRVQSQWASTR-NH2
notes: limits worked out from L260 of the F-X-L-X-P motif

Kd [5]: 400 nM
Molecule: {FAM}-RHFNLAPLGRRRVQSQWASTR [TIN2TBM peptide labelled with an N-terminal 5(6)-carboxyfluorescein (TIN2-FAM)]

stoichiometry N [6]: 2 TRF1 per TIN2
stoichiometry N [7]: 2
B2: TRF1 (telomeric repeat-binding factor 1), full length, subunit of recombinant shelterin (natural protein, human, UniProt P54274-1 1-439, looked up)
chain: T4 chain
notes: TRF1, gene NM_017489.2, codon-optimised; the UniProt identifier is printed for the TRFH construct of the same protein; Further details of the shelterin construct 'to be reported elsewhere'; also called full-length TRF1
